For assay [1], the system named is RA patients. Kind of assay: Plasma ApoC-III concentration (ELISA), Study 4. It is filed as in vivo, human. The following applies: for ApoC-III level, 4 weeks CFB: 4 weeks change from baseline. The protocol: (§1) Randomized double-blind, placebo-controlled add on study in subjects with active RA who have an inadequate response to MTX monotherapy, in combination with methotrexate, administered for 4 weeks in the treatment of subjects with active rheumatoid arthritis who have an inadequate response to methotrexate alone.
(§2) Compound 1 (dosed as a [Compound 1:HCl:3H2O]) capsules administered orally in 30 mg, 75 mg, 150 mg, or 300 mg doses per day for 4 weeks.
Plasma ApoC-II and ApoC-III concentrations are determined using commercial available ELISA kits from Abnova (9th Floor, No. 108, Jhouzih St., Neihu District. Taipei City, 114, Taiwan) according to manufacturer's instruction. apoC2: catalogue number KA0464, lot number used: 08871403. apoC3: catalogue number KA0465, lot number used: 02961525.
Background: ELISA stands for enzyme-linked immunosorbent assay.

Assay [2] relates to RA patients. Description: Paraoxonase assay (PON1), Study 4. Conditions: for PON1 level, 4 weeks CFB: 4 weeks change from baseline. It is filed as in vivo, human. As to the method:
as §1, §2
Paraoxanases are involved, in particular PON1 have a role in preventing atherosclerosis.
The PON assay is performed according to published protocol by Mackness et al. (Mackness et al., 2003).

Consider `O=C(Nc1nc2cccc(-c3ccc(CN4CCS(=O)(=O)CC4)cc3)n2n1)C1CC1` [Compound 1, cyclopropanecarboxylic acid {5-[4-(1,1-dioxo-thiomorpholin-4-ylmethyl)-phenyl]-[1,2,4]triazolo[1,5-a]pyridin-2yl}-amide], for which the “ApoC-III level, 4 weeks CFB” value in the assay on RA patients [1] (30 mg q.d.) is 4.6%; with RA patients [1] (75 mg q.d.), 17.6%; in the assay with RA patients [1] (150 mg q.d.), 9.6%; in the assay on RA patients [1] (300 mg q.d.) it was 27.9%. Further, the “ApoC-III level, week 4” value stood at 78.6 ng/mL in the assay on RA patients [1] (30 mg q.d.), 79.6 ng/mL with RA patients [1] (75 mg q.d.), 82.7 ng/mL with RA patients [1] (150 mg q.d.) and 88.2 ng/mL in the assay on RA patients [1] (300 mg q.d.). Further, the “PON1 level, 4 weeks CFB” value in the assay with RA patients [2] (30 mg q.d.) amounted to 4.2%; with RA patients [2] (75 mg q.d.) it was 11.2%; in the assay on RA patients [2] (150 mg q.d.) it was 43.4%; with RA patients [2] (300 mg q.d.) it was 31.0%. For the same compound, the “PON1 level, Baseline” value with RA patients [2] (75 mg q.d.) was found to be 69.3 ng/mL; in the assay with RA patients [2] (150 mg q.d.) it was 52.5 ng/mL. The “PON1 level, week 4” value was found to be 73.7 ng/mL in the assay with RA patients [2] (75 mg q.d.), 70.6 ng/mL with RA patients [2] (150 mg q.d.) and 77.5 ng/mL in the assay with RA patients [2] (300 mg q.d.).
